Reference: PubChem BioAssay (NCI)
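Assay format: 96-well plates, 48-hour exposure. TGI: total growth inhibition.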

Columns and labels:
Test in all cases: NCI anticancer screen, dose series, 48 h
[1] = test system: BT-549 breast
[2] = test system: HCT-15 colon
[3] = test system: SN12C renal
[4] = test system: M14 melanoma
[5] = test system: U251 CNS
[6] = test system: NCI-H522 lung
[7] = test system: SNB-19 CNS
[8] = test system: UACC-257 melanoma
[9] = test system: SNB-75 CNS
[10] = test system: CCRF-CEM leukemia
[11] = test system: HL-60(TB) leukemia
[12] = test system: SF-268 CNS
[13] = test system: A549 NSCLC
[14] = test system: OVCAR-8 ovarian
[15] = test system: OVCAR-5 ovarian
[16] = test system: SW-620 colon
[17] = test system: SF-295 CNS
[18] = test system: 786-0 renal
[19] = test system: HOP-62 NSCLC
[20] = test system: SK-OV-3 ovarian
[21] = test system: NCI-H23 lung
[22] = test system: HS 578T breast
[23] = test system: SR leukemia
[24] = test system: SK-MEL-2 melanoma
[25] = test system: KM12 colon
[26] = test system: SF-539 CNS
[27] = test system: TK-10 renal
[28] = test system: LOX IMVI melanoma
[29] = test system: PC-3 prostate
[30] = test system: OVCAR-3 ovarian
[31] = test system: SK-MEL-28 melanoma
[32] = test system: UACC-62 melanoma
[33] = test system: UO-31 renal
[34] = test system: COLO 205 colon
[35] = test system: EKVX NSCLC
[36] = test system: MDA-MB-231 breast
[37] = test system: A498 renal
[38] = test system: NCI-H460 lung
[39] = test system: MALME-3M melanoma
[40] = test system: DU-145 prostate
[41] = test system: RXF 393 renal
[42] = test system: IGROV1 ovarian
[43] = test system: OVCAR-4 ovarian
[44] = test system: NCI/ADR-RES ovarian
[45] = test system: SK-MEL-5 melanoma
[46] = test system: HOP-92 NSCLC
[47] = test system: NCI-H226 lung
[48] = test system: MCF7 breast
[49] = test system: ACHN renal
[50] = test system: CAKI-1 renal

What does the source list for `Cc1cnc2[nH]c(-c3cccc(Cl)c3)cc(=O)c2c1`?
TGI [1]: > 100 µM; TGI [2]: > 100 µM; TGI [3]: > 100 µM; TGI [4]: > 100 µM; TGI [5]: 92.2 µM; TGI [6]: 15 µM; TGI [7]: 41.3 µM; TGI [8]: > 100 µM; TGI [9]: 36.2 µM; TGI [10]: > 100 µM; TGI [11]: 0.609 µM; TGI [12]: 34.5 µM; TGI [13]: > 100 µM; TGI [14]: > 100 µM; TGI [15]: > 100 µM; TGI [16]: > 100 µM; TGI [17]: 1.64 µM; TGI [18]: > 100 µM; TGI [19]: 3.45 µM; TGI [20]: > 100 µM; TGI [21]: > 100 µM; TGI [22]: 20.5 µM; TGI [23]: > 100 µM; TGI [24]: 97.4 µM; TGI [25]: > 100 µM; TGI [26]: 0.0658 µM; TGI [27]: > 100 µM; TGI [28]: 11.6 µM; TGI [29]: > 100 µM; TGI [30]: 0.0755 µM; TGI [31]: > 100 µM; TGI [32]: 63.5 µM; TGI [33]: > 100 µM; TGI [34]: > 37.1 µM; TGI [35]: > 100 µM; TGI [36]: 1.46 µM; TGI [37]: > 100 µM; TGI [38]: > 58.2 µM; TGI [39]: > 100 µM; TGI [40]: > 57.8 µM; TGI [41]: 85.5 µM; TGI [42]: > 100 µM; TGI [43]: > 100 µM; TGI [44]: > 100 µM; TGI [45]: 16 µM; TGI [46]: > 100 µM; TGI [47]: 87.3 µM; TGI [48]: > 100 µM; TGI [49]: > 100 µM; TGI [50]: 59.7 µM
